In brackets after ≈: the same amount, converted by molar mass. Read-outs that look alike come from different tables or passages of the source.
Assays:
Assay type in all cases: cell-based, Acinetobacter baumannii
[1] = tested on: A. baumannii isolates; test: Individual antimicrobial susceptibility testing (MIC, broth microdilution, CLSI)
Experimental: In the antimicrobial susceptibility testing 77 isolates of A. baumannii (from 2010) in the following sub-groups were tested: • 22 isolates generally susceptible to antimicrobial agents (“Sus”) • 20 carbapenem-resistant isolates (e.g. “MPM-R”) • 20 aminoglycoside-resistant isolates (e.g. “AMK-R”) • 15 colistin-resistant isolates. (e.g. “COL-R”)
Minimum inhibitory concentration (MIC) endpoints were determined by broth microdilution according to CLSI guidelines (CLSI, M7-A8 & M100-S22, 2012). Panels were prepared at IHMA using cation-adjusted Mueller-Hinton broth. Colonies were taken directly from a second-pass culture plate and prepared to a suspension equivalent of the 0.5 McFarland standard using normal saline.
Testing was carried out as described in the General Procedures to determine minimum inhibitory concentration (MIC) end points for compound (I), amikacin, colistin, gentamicin, meropenem and tobramycin, for 77 A. baumannii isolates. Under the “MIC (μg/ml)” heading, the first column (Range) indicates the MIC end points for the particular number (N) of isolates tested, the second column (50%) provides an estimate of the concentration that inhibits 50% (MIC50) of bacterial isolates tested, and the third column (90%) provides an estimate of the concentration that inhibits 90% of the bacterial isolates tested.

[2] = tested on: A. baumannii CIP 5377, CIP 7034, AYE, SAN, RCH; test: Antimicrobial susceptibility testing (MIC, broth microdilution, EUCAST; Example 5); conditions: Acinetobacter baumannii
Source text: A. baumannii CIP 5377 (ATCC® 17978): low cephalosporinase producing strain, susceptible to meropenem and amikacin, isolated in an infected patient
A. baumannii CIP 7034: low cephalosporinase producing strain, susceptible to meropenem and amikacin A. baumannii AYE ATCC® BAA1710™: extended spectrum beta-lactamase producing strain susceptible to meropenem and resistant to amikacin
A. baumannii SAN-94040 (SAN): cephalosporinase-overproducing strain, susceptible to meropenem and intermediate to amikacin and resistant to fluoroquinolones, isolated from blood cultures of an intensive care patient with nosocomial pneumonia from North Africa (Algeria).
A. baumannii RCH-69: cephalosporinase producing strain; low susceptibility to imipenem and resistant to amikacin.

[3] = tested on: A. baumannii isolates; test: Checkerboard testing (compound (I)/antibacterial agent interaction, FIC index)
Experimental: Checkerboard interaction studies were performed using 5 isolates from each of the sub-groups and time kill studies were performed using 3 isolates from each sub-group.
Checkerboards (20 isolates, 5 per sub-group) were prepared so as to contain multiple concentrations of compound (I) with different additional antibacterial agents (amikacin, gentamicin, colistin, meropenem and tobramycin) as follows:
Serial two-fold dilutions of the antimicrobial agents alone or in combination in wells of 96 well microtiter plates were inoculated with the appropriate inoculum so that each well contained approximately 4-5×10^4 CFU/ml. Plates were incubated at 35° C. for 16-20 hours. Combination concentrations were tested between 0.25×MIC and 2×MIC. Growth and sterility controls were also included in each plate.
Synergy, indifference and antagonism were calculated based upon the use of the fractional inhibitory concentration (FIC) indices as described by Pillai, Moellering & Eliopoulos (2005) whereby:
Synergism=FIC index of ≦0.5 Indifference=FIC index >1 but ≦4 Additivity >0.5 to 1 Antagonism=FIC index of >4
Checkerboard studies were carried out as described in General Procedures using twenty different A. baumannii isolates with 5 per sub-group of: susceptible, amikacin-resistant, colistin-resistant and meropenem-resistant.

[4] = tested on: A. baumannii isolates; test: Time kill study (Example 4); conditions: for Time to kill 99.9%: alone; for MIC: Acinetobacter baumannii, read-out: MIC
Experimental: A total of 12 isolates were tested (three per sub-group either susceptible, meropenem-resistant, amikacin-resistant or colistin-resistant). Two combinations were tested per isolate. Time-kill kinetics were performed by testing compound (I) and an additional antibacterial agent (amikacin, colistin and meropenem) individually at 1× and 4× the corresponding MIC of each antibacterial agent. […] Samples were taken at 0, 2, 4, 8 and 24 hours in order to determine colony forming units (CFU/mL).
Time-kill studies were carried out as described in General Procedures using combinations of compound (I) with amikacin, meropenem and colistin, respectively.

[5] = Acinetobacter baumannii, All isolates, N=77
[6] = Acinetobacter baumannii, Amikacin-resistant isolates, N=20
[7] = Acinetobacter baumannii, Colistin-resistant isolates, N=15
[8] = Acinetobacter baumannii, Meropenem-resistant isolates, N=20
[9] = Acinetobacter baumannii, Susceptible isolates, N=22

**Q.** Which results are given for CCc1cc(O)c(Oc2ccc(C(N)=O)cc2F)cc1F [compound (I), 4-(4-ethyl-5-fluoro-2-hydroxyphenoxy)-3-fluorobenzamide]?
**A.** range of the majority of MICs ([1]; 77 isolates): 2 to 8 µg/mL; MIC50 [1, 5]: 4 µg/mL (≈ 13.6 µM); MIC90 [1, 5]: 8 µg/mL (≈ 27.3 µM); MIC50 [1, 6]: 4 µg/mL (≈ 13.6 µM); MIC90 [1, 6]: 8 µg/mL (≈ 27.3 µM); MIC50 [1, 7]: 4 µg/mL (≈ 13.6 µM); MIC90 [1, 7]: > 32 µg/mL; MIC50 [1, 8]: 8 µg/mL (≈ 27.3 µM); MIC90 [1, 8]: 8 µg/mL (≈ 27.3 µM); MIC50 [1, 9]: 4 µg/mL (≈ 13.6 µM); MIC90 [1, 9]: 8 µg/mL (≈ 27.3 µM); MIC ([1]; Acinetobacter baumannii, 77 isolates, FIG. 1 and 2, read-out: mode MIC): 4 µg/mL (≈ 13.6 µM); MIC Range ([1]; Amikacin-resistant isolates, N=20): 2 to 8 µg/mL; MIC Range ([1]; Susceptible isolates, N=22): 0.5 to 8 µg/mL; MICs ranging ([1]; amikacin-R isolates): 2 to 8 µg/mL; MICs ranging ([1]; susceptible isolates): 0.5 to 8 µg/mL; MIC ([2]; 5 isolates of A. baumannii, read-out: MICs ranging): 1 to 2 µg/mL (≈ 3.41 to 6.82 µM); MIC ([2]; A. baumannii AYE, read-out: MIC): 2 µg/mL (≈ 6.82 µM); MIC ([2]; A. baumannii CIP 5377, read-out: MIC): 2 µg/mL (≈ 6.82 µM); MIC ([2]; A. baumannii CIP 7034, read-out: MIC): 1 µg/mL (≈ 3.41 µM); MIC ([2]; A. baumannii RCH, read-out: MIC): 2 µg/mL (≈ 6.82 µM); MIC ([2]; A. baumannii SAN, read-out: MIC): 2 µg/mL (≈ 6.82 µM); MIC ([3]; A. baumannii 441142, colistin-resistant): 2 µg/mL; MIC ([3]; A. baumannii 441160, colistin-resistant): 4 µg/mL; MIC ([3]; A. baumannii 463996, colistin-resistant): 2 µg/mL; MIC ([3]; A. baumannii 466936, colistin-resistant): 16 µg/mL; MIC ([3]; A. baumannii 618649, meropenem-resistant): 4 µg/mL; MIC ([3]; A. baumannii 638115, amikacin-resistant): 8 µg/mL; MIC ([3]; A. baumannii 655932, amikacin-resistant): 2 µg/mL; MIC ([3]; A. baumannii 661954, amikacin-resistant): 8 µg/mL; MIC ([3]; A. baumannii 667848, meropenem-resistant): 8 µg/mL; MIC ([3]; A. baumannii 670348, susceptible): 4 µg/mL; MIC ([3]; A. baumannii 671050, meropenem-resistant): 8 µg/mL; MIC ([3]; A. baumannii 672190, susceptible): 4 µg/mL; MIC ([3]; A. baumannii 674340, susceptible): 1 µg/mL; MIC ([3]; Acinetobacter baumannii, A. baumannii 441142, colistin-resistant, read-out: MIC): 4 µg/mL; MIC ([3]; Acinetobacter baumannii, A. baumannii 441160, colistin-resistant, read-out: MIC): 8 µg/mL; MIC ([3]; Acinetobacter baumannii, A. baumannii 463996, colistin-resistant, read-out: MIC): 4 µg/mL; MIC ([3]; Acinetobacter baumannii, A. baumannii 466936, colistin-resistant, read-out: MIC): 8 µg/mL; MIC ([3]; Acinetobacter baumannii, A. baumannii 517303, colistin-resistant, read-out: MIC): 4 µg/mL; MIC ([3]; Acinetobacter baumannii, A. baumannii 618649, meropenem-resistant, read-out: MIC): 2 µg/mL; MIC ([3]; Acinetobacter baumannii, A. baumannii 625917, meropenem-resistant, read-out: MIC): 4 µg/mL; MIC ([3]; Acinetobacter baumannii, A. baumannii 628760, susceptible, read-out: MIC): 2 µg/mL; MIC ([3]; Acinetobacter baumannii, A. baumannii 637723, amikacin-resistant, read-out: MIC): 2 µg/mL; MIC ([3]; Acinetobacter baumannii, A. baumannii 638115, amikacin-resistant, read-out: MIC): 4 µg/mL; MIC ([3]; Acinetobacter baumannii, A. baumannii 650216, meropenem-resistant, read-out: MIC): 8 µg/mL; MIC ([3]; Acinetobacter baumannii, A. baumannii 655932, amikacin-resistant, read-out: MIC): 4 µg/mL; MIC ([3]; Acinetobacter baumannii, A. baumannii 661954, amikacin-resistant, read-out: MIC): 4 µg/mL; MIC ([3]; Acinetobacter baumannii, A. baumannii 667848, meropenem-resistant, read-out: MIC): 4 µg/mL; MIC ([3]; Acinetobacter baumannii, A. baumannii 670348, susceptible, read-out: MIC): 2 µg/mL; MIC ([3]; Acinetobacter baumannii, A. baumannii 671050, meropenem-resistant, read-out: MIC): 4 µg/mL; MIC ([3]; Acinetobacter baumannii, A. baumannii 672190, susceptible, read-out: MIC): 8 µg/mL; MIC ([3]; Acinetobacter baumannii, A. baumannii 674340, susceptible, read-out: MIC): 2 µg/mL; Time to kill 99.9% ([4]; AMK-R-1, 1xMIC): >24 h; Time to kill 99.9% ([4]; AMK-R-1, 4xMIC): >24 h; Time to kill 99.9% ([4]; AMK-R-2, 1xMIC): >24 h; Time to kill 99.9% ([4]; AMK-R-2, 4xMIC): >24 h; Time to kill 99.9% ([4]; AMK-R-3, 1xMIC): >24 h; Time to kill 99.9% ([4]; AMK-R-3, 4xMIC): >24 h; MIC ([4]; isolate AMK-R-1): 4 µg/mL; MIC ([4]; isolate AMK-R-2): 4 µg/mL; MIC ([4]; isolate AMK-R-3): 2 µg/mL; MIC ([4]; isolate COL-R-1): 8 µg/mL; MIC ([4]; isolate COL-R-2): 4 µg/mL; MIC ([4]; isolate COL-R-3): 16 µg/mL; MIC ([4]; isolate MPM-R-1): 8 µg/mL; MIC ([4]; isolate MPM-R-2): 4 µg/mL; MIC ([4]; isolate MPM-R-3): 4 µg/mL; MIC ([4]; isolate Sus-1): 1 µg/mL; MIC ([4]; isolate Sus-2): 2 µg/mL; MIC ([4]; isolate Sus-3): 8 µg/mL; MIC ([4]; isolate printed MPM-R-1 (second such line of Table 8, r14)): 4 µg/mL; Time to kill 99.9% ([4]; COL-R-1, 1xMIC): >24 h; Time to kill 99.9% ([4]; COL-R-1, 4xMIC): >24 h; Time to kill 99.9% ([4]; COL-R-2, 1xMIC): >24 h; Time to kill 99.9% ([4]; COL-R-2, 4xMIC): >24 h; Time to kill 99.9% ([4]; COL-R-3, 1xMIC): >24 h; Time to kill 99.9% ([4]; COL-R-3, 4xMIC): >24 h; Time to kill 99.9% ([4]; MPM-R-1 (second line, Table 8 r14), 1xMIC): >24 h; Time to kill 99.9% ([4]; MPM-R-1 (second line, Table 8 r14), 4xMIC): >24 h; Time to kill 99.9% ([4]; MPM-R-1, 1xMIC): >24 h; Time to kill 99.9% ([4]; MPM-R-1, 4xMIC): >24 h; Time to kill 99.9% ([4]; MPM-R-2, 1xMIC): >24 h; Time to kill 99.9% ([4]; MPM-R-2, 4xMIC): >24 h; Time to kill 99.9% ([4]; MPM-R-3, 1xMIC): >24 h; Time to kill 99.9% ([4]; MPM-R-3, 4xMIC): >24 h; Time to kill 99.9% ([4]; Sus-1, 1xMIC): >24 h; Time to kill 99.9% ([4]; Sus-1, 4xMIC): >24 h; Time to kill 99.9% ([4]; Sus-2, 1xMIC): >24 h; Time to kill 99.9% ([4]; Sus-2, 4xMIC): >24 h; Time to kill 99.9% ([4]; Sus-3, 1xMIC): >24 h; Time to kill 99.9% ([4]; Sus-3, 4xMIC): >24 h; effect in time-kill studies when tested alone ([4]; alone at 1× or 4×MIC): bacteriostatic
